Data taken from ChEMBL document CHEMBL5131484, “Design and synthesis of adamantane-1-carbonyl thiourea derivatives as potent and selective inhibitors of h-P2X4 and h-P2X7 receptors: An Emerging therapeutic tool for treatment of inflammation and neurological disorders” (Eur J Med Chem, 2022).

How the values were obtained:
[1] = Cytotoxicity against human HEK293 cells assessed as reduction in cell viability at 50 uM incubated for 24 hrs by MTT assay relative to control; type: toxicity, cell-based; conditions: read-out: INH
[2] = target: T1, P2X purinoceptor 7 (Homo sapiens, UniProt Q99572); assay: Antagonist activity at human P2X7 receptor expressed in human 1321N1 cells assessed as reduction in ethidium bromide dye uptake preincubated for 15 mins followed by BzATP addition and measured after 30 mins by Ethidium bromide dye based fluorescence plate reader analysis; type: cell-based
T1 sequence (Q99572 whole entry): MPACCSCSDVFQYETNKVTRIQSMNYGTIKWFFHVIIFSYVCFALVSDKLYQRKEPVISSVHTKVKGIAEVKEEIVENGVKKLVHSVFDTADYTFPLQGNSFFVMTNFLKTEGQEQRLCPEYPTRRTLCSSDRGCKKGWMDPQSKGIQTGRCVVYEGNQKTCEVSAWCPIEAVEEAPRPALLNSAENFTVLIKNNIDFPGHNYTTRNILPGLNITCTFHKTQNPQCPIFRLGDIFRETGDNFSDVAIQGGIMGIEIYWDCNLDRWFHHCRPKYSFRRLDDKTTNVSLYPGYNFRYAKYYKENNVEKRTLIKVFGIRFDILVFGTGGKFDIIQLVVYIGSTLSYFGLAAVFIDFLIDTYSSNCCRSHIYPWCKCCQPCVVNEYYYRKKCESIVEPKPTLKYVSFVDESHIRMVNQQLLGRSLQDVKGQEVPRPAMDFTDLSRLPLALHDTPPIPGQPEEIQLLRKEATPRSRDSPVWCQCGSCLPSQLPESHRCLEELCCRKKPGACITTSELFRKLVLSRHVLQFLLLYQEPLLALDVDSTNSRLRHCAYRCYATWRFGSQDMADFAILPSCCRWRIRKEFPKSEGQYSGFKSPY

[3] = target: T2, P2X purinoceptor 4 (Homo sapiens) (UniProt Q99571); assay: Antagonist activity at human P2X4 receptor expressed in human 1321N1 cells assessed as reduction in intracellular Ca2+ influx incubated for 30 mins by Fura-2 AM based fluorescence assay relative to control; type: cell-based
T2 sequence (whole entry): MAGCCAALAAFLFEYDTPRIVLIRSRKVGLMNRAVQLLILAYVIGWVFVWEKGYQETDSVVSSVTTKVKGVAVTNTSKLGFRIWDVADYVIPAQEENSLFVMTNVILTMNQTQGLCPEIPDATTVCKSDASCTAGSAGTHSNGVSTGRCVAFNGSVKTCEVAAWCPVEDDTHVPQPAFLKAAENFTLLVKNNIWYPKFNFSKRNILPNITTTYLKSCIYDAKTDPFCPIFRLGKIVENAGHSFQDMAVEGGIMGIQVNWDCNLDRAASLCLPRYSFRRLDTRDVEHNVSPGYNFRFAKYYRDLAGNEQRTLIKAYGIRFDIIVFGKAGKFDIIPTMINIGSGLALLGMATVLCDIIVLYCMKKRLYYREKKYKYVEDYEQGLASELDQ

[4] = target: T3, P2X purinoceptor 7 (Homo sapiens) (UniProt Q99572); assay: (§1) Antagonist activity at human P2X7 receptor expressed in human 1321N1 cells assessed as reduction in ethidium bromide dye uptake at 20 uM preincubated for 15 mins followed by BzATP addition and measured after 30 mins by Ethidium bromide dye based fluorescence plate reader analysis relative to control; type: cell-based; conditions: filed as antagonist, time 45.0 min
T3 sequence (whole entry): T1 sequence (Q99572 whole entry)

[5] = target: T4, P2X purinoceptor 5 (Homo sapiens, UniProt Q93086); assay: Antagonist activity at human P2X5 receptor expressed in human 1321N1 cells assessed as reduction in intracellular Ca2+ influx incubated for 30 mins by Fura-2 AM based fluorescence assay relative to control; type: cell-based
[6] = Cytotoxicity against human 1321N1 cells assessed as reduction in cell viability at 50 uM incubated for 24 hrs by MTT assay relative to control; type: functional
[7] = target: T5, P2X purinoceptor 2 (Homo sapiens) (UniProt Q9UBL9); assay: Antagonist activity at human P2X2 receptor expressed in human 1321N1 cells assessed as reduction in intracellular Ca2+ influx incubated for 30 mins by Fura-2 AM based fluorescence assay relative to control; type: cell-based
T5 sequence (whole entry): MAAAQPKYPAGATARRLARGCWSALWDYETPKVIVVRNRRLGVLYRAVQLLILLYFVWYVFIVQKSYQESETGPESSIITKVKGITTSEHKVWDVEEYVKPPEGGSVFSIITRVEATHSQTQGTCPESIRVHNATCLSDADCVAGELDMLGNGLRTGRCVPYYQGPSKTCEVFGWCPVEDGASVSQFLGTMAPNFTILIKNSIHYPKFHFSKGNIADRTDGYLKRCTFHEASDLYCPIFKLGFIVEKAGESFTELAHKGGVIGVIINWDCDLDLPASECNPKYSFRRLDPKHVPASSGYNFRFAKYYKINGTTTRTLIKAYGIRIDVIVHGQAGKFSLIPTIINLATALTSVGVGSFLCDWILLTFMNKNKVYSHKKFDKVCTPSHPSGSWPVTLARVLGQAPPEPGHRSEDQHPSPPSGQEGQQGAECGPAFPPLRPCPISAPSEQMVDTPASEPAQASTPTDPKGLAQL

[8] = tested on: HeLa; assay: Cytotoxicity against human HeLa cells assessed as reduction in cell viability at 50 uM incubated for 24 hrs by MTT assay relative to control; type: functional
[9] = target: T3, P2X purinoceptor 7 (Homo sapiens); assay: Antagonist activity at human P2X7 receptor expressed in human 1321N1 cells assessed as reduction in intracellular Ca2+ influx incubated for 30 mins by Fura-2 AM based fluorescence assay relative to control; type: cell-based
[10] = target: T2, P2X purinoceptor 4 (Homo sapiens); assay: Negative allosteric modulation activity at human P2X4 receptor expressed in human 1321N1 cells assessed as reduction in intracellular Ca2+ influx incubated for 30 mins by Fura-2 AM based fluorescence assay relative to control; type: cell-based
[11] = target: T1, P2X purinoceptor 7; assay: Negative allosteric modulation activity at human P2X7 receptor expressed in human 1321N1 cells assessed as reduction in ethidium bromide dye uptake preincubated for 15 mins followed by BzATP addition and measured after 30 mins by Ethidium bromide dye based fluorescence plate reader analysis; type: cell-based
[12] = target: T3, P2X purinoceptor 7 (Homo sapiens); assay: as §1, with “Negative allosteric modulation” for “Antagonist”; type: cell-based; conditions: filed as negative allosteric modulator, time 45.0 min
[13] = target: T3, P2X purinoceptor 7 (Homo sapiens); assay: Negative allosteric modulation activity at human P2X7 receptor expressed in human 1321N1 cells assessed as ATP induced calcium response by measuring maximal ATP efficacy at 100 nM relative to control; type: cell-based; conditions: filed as negative allosteric modulator
[14] = target: T4, P2X purinoceptor 5; assay: Negative allosteric modulation activity at human P2X5 receptor expressed in human 1321N1 cells assessed as reduction in intracellular Ca2+ influx incubated for 30 mins by Fura-2 AM based fluorescence assay relative to control; type: cell-based
[15] = target: T3, P2X purinoceptor 7 (Homo sapiens); assay: Negative allosteric modulation activity at human P2X7 receptor expressed in human 1321N1 cells assessed as ATP induced calcium response by measuring maximal ATP efficacy at 200 nM relative to control; type: cell-based
[16] = target: T5, P2X purinoceptor 2 (Homo sapiens); assay: Negative allosteric modulation activity at human P2X2 receptor expressed in human 1321N1 cells assessed as reduction in intracellular Ca2+ influx incubated for 30 mins by Fura-2 AM based fluorescence assay relative to control; type: cell-based
[17] = target: T3, P2X purinoceptor 7 (Homo sapiens); assay: Negative allosteric modulation activity at human P2X7 receptor expressed in human 1321N1 cells assessed as ATP induced calcium response by measuring maximal ATP efficacy at 40 nM relative to control; type: cell-based; conditions: filed as negative allosteric modulator
[18] = target: T6, P2X purinoceptor 4 (Homo sapiens, UniProt Q99571); assay: Antagonist activity at human P2X4 receptor expressed in human 1321N1 cells assessed as reduction in intracellular Ca2+ influx incubated for 30 mins by Fura-2 AM based fluorescence assay; type: cell-based
T6 sequence (Q99571 whole entry): T2 sequence (whole entry)

[19] = target: T1, P2X purinoceptor 7; assay: Antagonist activity at human P2X7 receptor expressed in human 1321N1 cells assessed as reduction in intracellular Ca2+ influx incubated for 30 mins by Fura-2 AM based fluorescence assay; type: cell-based
[20] = target: T4, P2X purinoceptor 5; assay: Antagonist activity at human P2X5 receptor expressed in human 1321N1 cells assessed as reduction in intracellular Ca2+ influx incubated for 30 mins by Fura-2 AM based fluorescence assay; type: cell-based

T4 sequence (Q93086 whole entry): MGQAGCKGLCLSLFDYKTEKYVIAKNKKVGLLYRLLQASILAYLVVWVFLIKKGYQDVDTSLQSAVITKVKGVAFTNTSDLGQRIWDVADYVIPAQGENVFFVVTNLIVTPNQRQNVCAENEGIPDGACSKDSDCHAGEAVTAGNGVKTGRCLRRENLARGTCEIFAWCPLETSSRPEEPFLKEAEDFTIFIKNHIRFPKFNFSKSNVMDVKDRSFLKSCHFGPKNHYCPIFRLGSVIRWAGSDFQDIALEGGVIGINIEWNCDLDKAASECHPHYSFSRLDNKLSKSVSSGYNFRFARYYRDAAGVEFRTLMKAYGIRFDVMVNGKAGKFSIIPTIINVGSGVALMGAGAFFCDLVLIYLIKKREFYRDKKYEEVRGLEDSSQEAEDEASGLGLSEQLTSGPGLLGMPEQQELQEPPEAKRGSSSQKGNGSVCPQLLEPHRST

Row | Compound | cytotoxicity at 24 h, 50 µM [1] [%] | inhibition [3] [%] | inhibition [5] [%] | inhibition at 50 µM [6] [%] | inhibition [7] [%] | inhibition at 50 µM [8] [%] | inhibition [9] [%] | further results
1 | O=C(NC(=S)Nc1ccc(O)cc1)C12CC3CC(CC(C3)C1)C2 | 3.02 | 33 | 26 | 7.21 | 38 | 8.66 | – | IC50 [2]: 1.26 µM; Emax [4]: 68%
2 | O=C(NC(=S)Nc1cc([N+](=O)[O-])ccc1Cl)C12CC3CC(CC(C3)C1)C2 | 6.31 | – | 32 | 10.4 | – | 8.66 | – | –
3 | O=C(NC(=S)Nc1cccnc1Cl)C12CC3CC(CC(C3)C1)C2 | 4.95 | – | 25 | 11.4 | 13 | 5.21 | – | IC50 [2]: 0.155 µM; Emax [4]: 63%
4 | O=C(O)C12CC3CC(CC(C3)C1)C2 | – | 20 | 15 | – | 12 | – | 11 | –
5 | O=C(NC(=S)Nc1ccccc1O)C12CC3CC(CC(C3)C1)C2 | 4.22 | – | – | 10.3 | 33 | 8.6 | – | inhibition ([5]; filed as antagonist): 41%
6 | O=C(NC(=S)Nc1cccc2cccnc12)C12CC3CC(CC(C3)C1)C2 | 5.05 | – | – | 9.12 | – | 6.22 | – | inhibition [10]: 25%; IC50 [11]: 0.068 µM; Emax [12]: 42%; Emax [13]: 59%; inhibition [14]: 32%; Emax [15]: 31%; inhibition [16]: 15%; Emax [17]: 78%
7 | Cc1ccc(C(=O)Nc2ccc(S(=O)(=O)O)c3cc(S(=O)(=O)O)cc(S(=O)(=O)O)c23)cc1NC(=O)c1cccc(NC(=O)Nc2cccc(C(=O)Nc3cc(C(=O)Nc4ccc(S(=O)(=O)O)c5cc(S(=O)(=O)O)cc(S(=O)(=O)O)c45)ccc3C)c2)c1 [SURAMIN] | 48 | – | – | 30.6 | – | 28.7 | – | –
8 | Cc1cc(Br)ccc1NC(=S)NC(=O)C12CC3CC(CC(C3)C1)C2 | 7.02 | 35 | 16 | 2.2 | 22 | 4.1 | 18 | –
9 | NS(=O)(=O)c1ccccc1NC(=S)NC(=O)C12CC3CC(CC(C3)C1)C2 | 3.77 | – | – | 12.9 | 18 | 9.5 | – | IC50 [2]: 0.796 µM; IC50 [18]: 4.19 µM; Emax [4]: 58%; IC50 [19]: 0.699 µM; inhibition ([5]; filed as antagonist): 43%
10 | O=C(NC(=S)Nc1ccc(Br)cc1)C12CC3CC(CC(C3)C1)C2 | 13.7 | 21 | – | 5.4 | 35 | 7.19 | – | inhibition ([5]; filed as antagonist): 42%
11 | O=C(NC(=S)Nc1cc(Br)cc(C(F)(F)F)c1)C12CC3CC(CC(C3)C1)C2 | 6.85 | – | 20 | 5.37 | 5 | 11.9 | – | IC50 [18]: 4.53 µM; IC50 [19]: 4.02 µM
12 | COc1ccc(NC(=S)NC(=O)C23CC4CC(CC(C4)C2)C3)cc1OC | 7.2 | – | – | 13.5 | – | 14.3 | – | IC50 [20]: 16.5 µM
13 | O=C(NC(=S)Nc1cc(Br)ccc1Br)C12CC3CC(CC(C3)C1)C2 | 10.7 | – | 16 | 7.43 | – | 4.15 | 11 | IC50 [18]: 8.34 µM; inhibition ([7]; filed as antagonist): 41%
14 | COc1ccc(NC(=S)NC(=O)C23CC4CC(CC(C4)C2)C3)cc1 | 10.6 | 32 | 25 | 4.56 | – | 8.01 | 0 | –
15 | CN(C)CCCNC(=S)NC(=O)C12CC3CC(CC(C3)C1)C2 | 10.4 | 0 | 5 | 5.45 | 2 | 7.21 | 10 | –
16 | O=C(NC(=S)Nc1cccc(O)c1)C12CC3CC(CC(C3)C1)C2 | 6.95 | 36 | – | 5.67 | 33 | 11 | 19 | inhibition ([5]; filed as antagonist): 44%
17 | O=C(NC(=S)Nc1cc(Cl)c(O)c(Cl)c1)C12CC3CC(CC(C3)C1)C2 | 1.06 | – | – | 6.18 | – | 5.4 | – | IC50 [20]: 12.3 µM
18 | Cc1ccc(NC(=S)NC(=O)C23CC4CC(CC(C4)C2)C3)c(Br)c1 | 9.46 | – | – | 7.29 | – | 15.4 | – | IC50 [20]: 9.04 µM
19 | CC(C)c1cc(Br)c(NC(=O)Nc2cccnc2)c(Br)c1 | 2.85 | – | – | 20.2 | – | 9.12 | – | –
20 | COc1cccc(NC(=S)NC(=O)C23CC4CC(CC(C4)C2)C3)c1 | 13.2 | 38 | – | 6.53 | – | 7.21 | 15 | inhibition ([5]; filed as antagonist): 45%
